# Test results from ChEMBL document CHEMBL1148899, “Activity of macrocyclic jatrophane diterpenes from Euphorbia kansui in a TrkA fibroblast survival assay” (2004).
# Assays:
# NIH3T3 [1] = experiment: Survival effect on NGF-dependent mouse NIH/3T3 cells expressing TrkB assessed as cell viability after 2 days by MTT assay; type: functional; details: NIH3T3, 48 h, read-out: ED50 (the source's name)
# NIH3T3 [2] = experiment: Survival effect on NGF-dependent mouse NIH/3T3 cells expressing TrkA assessed as cell viability after 2 days by MTT assay; type: functional; details: NIH3T3, 48 h, read-out: ED50 (the source's name)
Compound,EC50 (NIH3T3 [1]) [µg/mL],EC50 (NIH3T3 [2]) [µg/mL]
C=C1[C@H](OC(C)=O)[C@@H](OC(=O)c2ccccc2)[C@@H](OC(=O)c2ccccc2)C(C)(C)[C@H]2O[C@@H]2[C@@H](C)C(=O)[C@@]2(OC(C)=O)C[C@H](C)[C@H](OC(C)=O)[C@@H]2[C@H]1OC(C)=O [KANSUININ F],> 50,> 50
C=C1[C@H](OC(C)=O)[C@@H](OC(=O)c2ccccc2)[C@@H](OC(=O)c2cccnc2)C(C)(C)[C@H]2O[C@](O)([C@H](C)C2=O)[C@@]2(OC(C)=O)C[C@H](C)[C@H](OC(C)=O)[C@@H]2[C@H]1OC(C)=O [KANSUININ D],0.22,0.55
C=C1[C@H](OC(C)=O)[C@@H](OC(=O)c2ccccc2)[C@@H](OC(C)=O)C(C)(C)[C@H]2O[C@](O)([C@H](C)C2=O)[C@@]2(OC(C)=O)C[C@H](C)[C@H](OC(C)=O)[C@@H]2[C@H]1OC(C)=O [KANSUININ A],3.28,7.92
C=C1[C@H](OC(C)=O)[C@@H](OC(=O)c2ccccc2)[C@@H](OC(=O)c2cccnc2)C(C)(C)[C@H]2O[C@@H]2[C@@H](C)C(=O)[C@@]2(OC(C)=O)C[C@H](C)[C@H](OC(C)=O)[C@@H]2[C@H]1OC(C)=O [KANSUININ E],> 50,0.23
